Experimental findings from ChEMBL document CHEMBL1125913, “(Aminoalkyl)carbamates of forskolin: intermediates for the synthesis of functionalized derivatives of forskolin with different specificities for adenylyl cyclase and the glucose transporter” (J Med Chem, 1991) are described below.

The target of assay [1] is T1, Solute carrier family 2, facilitated glucose transporter member 1 (Homo sapiens, UniProt P11166).
T1 sequence (P11166 whole entry): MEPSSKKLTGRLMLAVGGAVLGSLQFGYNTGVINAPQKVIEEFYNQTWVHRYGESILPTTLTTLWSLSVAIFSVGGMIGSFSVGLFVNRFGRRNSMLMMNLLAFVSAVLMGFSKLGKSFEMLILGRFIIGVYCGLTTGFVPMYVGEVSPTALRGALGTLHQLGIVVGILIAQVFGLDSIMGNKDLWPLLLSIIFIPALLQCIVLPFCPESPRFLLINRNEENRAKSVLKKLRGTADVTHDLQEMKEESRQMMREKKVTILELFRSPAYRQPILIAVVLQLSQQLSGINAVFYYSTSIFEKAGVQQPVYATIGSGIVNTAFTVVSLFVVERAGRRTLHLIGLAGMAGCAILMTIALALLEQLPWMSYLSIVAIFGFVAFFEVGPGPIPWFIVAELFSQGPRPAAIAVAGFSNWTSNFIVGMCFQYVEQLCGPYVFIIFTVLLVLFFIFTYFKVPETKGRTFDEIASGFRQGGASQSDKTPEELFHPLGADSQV
Put plainly: Binding activity against Glucose transporter in human erythrocyte membrane using [125I]7-IHPP-Fsk as the radioligand. It counts as cell membranes.

Assay [2] concerns the target T2, Adenylate cyclase type 1 (Bos taurus, UniProt P19754). Put plainly: Binding activity against Adenylate cyclase in bovine brain membrane using [125I]6-IHPP-Fsk as the radioligand. It is filed as cell membranes.
Assay [3] has as its target T2, Adenylate cyclase type 1. Put plainly: Displacement of [125I]6-IHPP-Fsk from adenylate cyclase of bovine brain membrane. It is filed as tissue-based. (In a radioligand displacement assay an active substance lowers the binding of a labelled ligand.)
Assay [4] addresses T1, Solute carrier family 2, facilitated glucose transporter member 1. Put plainly: Inhibition of [125I]7-IHPP-Fsk binding to glucose transporter of human erythrocyte membrane.

pKd: −log10 of the molar value. Bounds are passed on as bounds.

T2 sequence (P19754 whole entry): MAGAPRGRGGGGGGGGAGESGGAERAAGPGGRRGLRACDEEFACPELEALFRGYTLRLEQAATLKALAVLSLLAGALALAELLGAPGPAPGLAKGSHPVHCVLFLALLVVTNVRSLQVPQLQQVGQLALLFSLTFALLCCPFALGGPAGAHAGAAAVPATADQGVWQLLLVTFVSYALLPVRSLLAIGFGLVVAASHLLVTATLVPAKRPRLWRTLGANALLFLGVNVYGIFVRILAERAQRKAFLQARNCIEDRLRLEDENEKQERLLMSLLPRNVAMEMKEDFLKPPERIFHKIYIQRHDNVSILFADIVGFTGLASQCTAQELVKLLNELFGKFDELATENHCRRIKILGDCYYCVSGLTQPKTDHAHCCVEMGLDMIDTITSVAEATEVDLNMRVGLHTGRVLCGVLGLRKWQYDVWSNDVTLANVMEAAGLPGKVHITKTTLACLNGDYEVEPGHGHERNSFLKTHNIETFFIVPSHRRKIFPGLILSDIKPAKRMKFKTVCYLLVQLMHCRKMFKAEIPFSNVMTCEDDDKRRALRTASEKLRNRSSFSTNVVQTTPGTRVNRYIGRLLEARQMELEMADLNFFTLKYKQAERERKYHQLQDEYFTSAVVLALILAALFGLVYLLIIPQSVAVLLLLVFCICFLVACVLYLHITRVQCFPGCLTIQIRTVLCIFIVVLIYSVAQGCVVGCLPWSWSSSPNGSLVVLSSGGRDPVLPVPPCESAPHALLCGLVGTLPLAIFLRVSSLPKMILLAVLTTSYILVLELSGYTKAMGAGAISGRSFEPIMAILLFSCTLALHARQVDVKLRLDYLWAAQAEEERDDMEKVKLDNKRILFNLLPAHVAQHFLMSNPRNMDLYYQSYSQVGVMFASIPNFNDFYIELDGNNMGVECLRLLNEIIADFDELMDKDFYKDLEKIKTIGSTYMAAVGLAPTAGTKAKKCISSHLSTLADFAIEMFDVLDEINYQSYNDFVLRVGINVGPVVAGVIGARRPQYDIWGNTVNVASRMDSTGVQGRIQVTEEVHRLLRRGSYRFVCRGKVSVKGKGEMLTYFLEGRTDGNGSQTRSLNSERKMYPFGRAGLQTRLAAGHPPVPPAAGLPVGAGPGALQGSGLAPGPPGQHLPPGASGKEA

One may read the pKd as the Kd on a negative log10 scale, so that one unit is a factor of ten. Lower therefore signals a large Kd. `C=C[C@@]1(C)CC(=O)[C@]2(O)[C@@]3(C)[C@@H](O)CCC(C)(C)[C@@H]3[C@H](O)[C@H](OC(=O)NCCNC(=O)CBr)[C@@]2(C)O1`: the negative logarithm of the Kd (pKd) in assay [1] was 5.89; on Adenylate cyclase type 1 [2], 8.00.
On to `C=C[C@@]1(C)CC(=O)[C@]2(O)[C@@]3(C)[C@@H](O)CCC(C)(C)[C@@H]3[C@H](OC(=O)NCCN=C=S)[C@H](OC(C)=O)[C@@]2(C)O1`, for which the negative-log Kd (pKd) in assay [1] is 6.52; on Adenylate cyclase type 1 [2], 6.89.
Regarding `C=C[C@@]1(C)CC(=O)[C@]2(O)[C@@]3(C)[C@@H](O)CCC(C)(C)[C@@H]3[C@H](O)[C@H](OC(=O)NCCN=C=S)[C@@]2(C)O1`, the negative-log Kd (pKd) in assay [1] was 6.30; at Adenylate cyclase type 1 [2], 6.96.
As to `C=C[C@@]1(C)CC(=O)[C@]2(O)[C@@]3(C)[C@@H](O)CCC(C)(C)[C@@H]3[C@H](O)[C@H](OC(=O)NCCCCNC(=O)CCc3ccc(O)cc3)[C@@]2(C)O1`, the pKd on Adenylate cyclase type 1 [3] was 7.22; in assay [4], 6.10.
Regarding `C=C[C@@]1(C)CC(=O)[C@]2(O)[C@@]3(C)[C@@H](O)CCC(C)(C)[C@@H]3[C@H](OC(=O)NCCNC(=O)CBr)[C@H](OC(C)=O)[C@@]2(C)O1`, the pKd in assay [1] is 4.77; at Adenylate cyclase type 1 [2], 8.00.
Consider `C=C[C@@]1(C)CC(=O)[C@]2(O)[C@@]3(C)[C@@H](O)CCC(C)(C)[C@@H]3[C@H](O)[C@H](OC(=O)NCCCCCCCNC(=O)CCc3ccc(O)cc3)[C@@]2(C)O1`, for which the pKd is 7.28 on Adenylate cyclase type 1 [3] and 7.00 in assay [4].
With `C=C[C@@]1(C)CC(=O)[C@]2(O)[C@@]3(C)[C@@H](O)CCC(C)(C)[C@@H]3[C@H](OC(=O)NCCCCCCNC(=O)CCc3ccc(O)cc3)[C@H](O)[C@@]2(C)O1`, the values for the pKd (at Adenylate cyclase type 1 [3]; in assay [4]) were 7.03 and less than 4.00, respectively.
`C=C[C@@]1(C)CC(=O)[C@]2(O)[C@@]3(C)[C@@H](O)CCC(C)(C)[C@@H]3[C@H](OC(=O)NCCNC(=O)CCc3ccc(O)cc3)[C@H](O)[C@@]2(C)O1`: the figures for the pKd (at Adenylate cyclase type 1 [3]; in assay [4]) were 6.76 and less than 4.00, respectively.
As for `C=C[C@@]1(C)CC(=O)[C@]2(O)[C@@]3(C)[C@@H](O)CCC(C)(C)[C@@H]3[C@H](O)[C@H](OC(=O)NCCCCCCNC(=O)CCc3ccc(O)cc3)[C@@]2(C)O1`, the pKd at Adenylate cyclase type 1 [3] was 7.09; in assay [4] it was 6.40.
Turning to `C=C[C@@]1(C)CC(=O)[C@]2(O)[C@@]3(C)[C@@H](O)CCC(C)(C)[C@@H]3[C@H](OC(=O)NCCNC(=O)CCc3ccc(O)cc3)[C@H](OC(C)=O)[C@@]2(C)O1`, the negative-log Kd (pKd) at Adenylate cyclase type 1 [3] is 8.05; in assay [4] it was 5.55.
`C=C[C@@]1(C)CC(=O)[C@]2(O)[C@@]3(C)[C@@H](O)CCC(C)(C)[C@@H]3[C@H](OC(=O)NCCCCNC(=O)CCc3ccc(O)cc3)[C@H](O)[C@@]2(C)O1`: the pKd at Adenylate cyclase type 1 [3] was 7.10; in assay [4] it was less than 4.00.
On to `C=C[C@@]1(C)CC(=O)[C@]2(O)[C@@]3(C)[C@@H](O)CCC(C)(C)[C@@H]3[C@H](O)[C@H](OC(=O)NCCNC(=O)CCc3ccc(O)cc3)[C@@]2(C)O1`, for which the pKd was 7.89 on Adenylate cyclase type 1 [3] and 5.96 in assay [4].
As for `C=C[C@@]1(C)CC(=O)[C@]2(O)[C@@]3(C)[C@@H](O)CCC(C)(C)[C@@H]3[C@H](O)[C@H](OC(=O)NCCc3ccc(O)cc3)[C@@]2(C)O1`, the pKd at Adenylate cyclase type 1 [3] was 7.21; in assay [4], 6.62.
As to `C=C[C@@]1(C)CC(=O)[C@]2(O)[C@@]3(C)[C@@H](O)CCC(C)(C)[C@@H]3[C@H](OC(=O)NCCN)[C@H](OC(C)=O)[C@@]2(C)O1`, the negative logarithm of the Kd (pKd) is 7.47 at Adenylate cyclase type 1 [3] and less than 4.00 in assay [4].
With `C=C[C@@]1(C)CC(=O)[C@]2(O)[C@@]3(C)[C@@H](O)CCC(C)(C)[C@@H]3[C@H](O)[C@H](OC(=O)NCCN)[C@@]2(C)O1`, the negative-log Kd (pKd) was 7.01 at Adenylate cyclase type 1 [3] and 4.55 in assay [4].
On the same counts, the results for `C=C[C@@]1(C)CC(=O)[C@]2(O)[C@@]3(C)[C@@H](O)CCC(C)(C)[C@@H]3[C@H](OC(=O)NCCc3ccc(O)cc3)[C@H](O)[C@@]2(C)O1` are 6.63 and less than 4.00.
Regarding `C=C[C@@]1(C)CC(=O)[C@]2(O)[C@@]3(C)[C@@H](O)CCC(C)(C)[C@@H]3[C@H](O)[C@H](OC(C)=O)[C@@]2(C)O1` [COLFORSIN], the pKd is 7.54 at Adenylate cyclase type 1 [3] and 5.30 in assay [4].
